According to PMC1867856, “Structural Insights into the Evolution of a Non-Biological Protein: Importance of Surface Residues in Protein Fold Optimization” (PLoS ONE, 2007):

Assays:
Type in all cases: binding, synthetic construct
[1] = molecular target: T1, protein 18-19 (N32D); assay: equilibrium ultrafiltration with γ-[…]-ATP
T1 construct: 80-residue artificial protein as N-terminal MBP fusion

[2] = molecular target: T2, protein 18-19; assay: X-ray crystal structure ([…] Å) and equilibrium ultrafiltration with γ-[…]-ATP
T2 construct: Kd measured on the N-terminal MBP fusion; crystal structure model residues 9-71

[3] = molecular target: T3, protein 18-19 (D65V); assay: equilibrium ultrafiltration with γ-[…]-ATP
T3 construct: 80-residue artificial protein as N-terminal MBP fusion

`Nc1ncnc2c1ncn2[C@@H]1O[C@H](COP(=O)(O)OP(=O)(O)OP(=O)(O)O)[C@@H](O)[C@H]1O` [ATP] gave a Kd [1] of 360 ± 12 nM, a Kd [2] of 1100 ± 78 nM and a Kd [3] of 640 ± 28 nM.
